Experimental data as given in PubChem BioAssay AID1918993 (Molecular Pharmacology Branch, DTP, NCI, 2023).
Values joined by “and” are separate entries in the source; they are usually repeats but may differ in a detail not shown here. Identical values can stand only once.

System: 233499-124-R-J3-PDC complex spheroid growth
Experiment: Anticancer human tumor 233499-124-R-J3-PDC patient-derived colon adenocarcinoma cell line growth inhibition [AhR]
Conditions: for viability, T/C: stronger effect = lower value
Method in brief: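 Spheroids combined tumor cells with HUVEC endothelial cells and human MSCs as stroma. AhR antagonists were paired with standard or investigational drugs, each dosed in half-log steps down from near clinical Cmax, or from 10 microM where Cmax was unknown.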

[1] = curve of first compound, second compound 0.1 µM
[2] = curve of first compound, second compound 0.316 µM
[3] = curve of first compound, second compound 1 µM
[4] = curve of first compound, second compound 3.16 µM
[5] = curve of first compound, second compound 10 µM
[6] = second compound 0.1 µM, first compound 0.0316 µM
[7] = second compound 0.1 µM, first compound 0.1 µM
[8] = second compound 0.1 µM, first compound 0.316 µM
[9] = second compound 0.1 µM, first compound 1 µM
[10] = second compound 0.1 µM, first compound 3.16 µM
[11] = second compound 0.1 µM, first compound 10 µM
[12] = second compound 0.316 µM, first compound 0.0316 µM
[13] = second compound 0.316 µM, first compound 0.1 µM
[14] = second compound 0.316 µM, first compound 0.316 µM
[15] = second compound 0.316 µM, first compound 1 µM
[16] = second compound 0.316 µM, first compound 3.16 µM
[17] = second compound 0.316 µM, first compound 10 µM
[18] = second compound 1 µM, first compound 0.0316 µM
[19] = second compound 1 µM, first compound 0.1 µM
[20] = second compound 1 µM, first compound 0.316 µM
[21] = second compound 1 µM, first compound 1 µM
[22] = second compound 1 µM, first compound 3.16 µM
[23] = second compound 1 µM, first compound 10 µM
[24] = second compound 3.16 µM, first compound 0.0316 µM
[25] = second compound 3.16 µM, first compound 0.1 µM
[26] = second compound 3.16 µM, first compound 0.316 µM
[27] = second compound 3.16 µM, first compound 1 µM
[28] = second compound 3.16 µM, first compound 3.16 µM
[29] = second compound 3.16 µM, first compound 10 µM
[30] = second compound 10 µM, first compound 0.0316 µM
[31] = second compound 10 µM, first compound 0.1 µM
[32] = second compound 10 µM, first compound 0.316 µM
[33] = second compound 10 µM, first compound 1 µM
[34] = second compound 10 µM, first compound 3.16 µM
[35] = second compound 10 µM, first compound 10 µM
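Note: spheroids exposed to agents for seven days before reading.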

Row | SMILES | IC50 [1] | IC50 [2] | IC50 [3] | IC50 [4] | IC50 [5] | viability, T/C [6] | viability, T/C [7] | viability, T/C [8] | viability, T/C [9] | viability, T/C [12] | viability, T/C [13] | viability, T/C [14] | viability, T/C [15] | viability, T/C [18] | viability, T/C [19] | viability, T/C [20] | viability, T/C [21] | viability, T/C [24] | viability, T/C [25] | viability, T/C [26] | also measured
1 | COc1cc(Nc2ncc3c(n2)-c2ccc(Cl)cc2C(c2c(F)cccc2OC)=NC3)ccc1C(=O)O | – | – | – | – | – | – | – | – | – | – | – | – | – | – | – | – | – | – | – | – | viability, T/C (compound 0.0316 µM): 86.8% and 75.8% and 70.1%; viability, T/C (compound 0.1 µM): 82.6% and 65.5% and 75.6%; viability, T/C (compound 0.316 µM): 80.1% and 102% and 79.4%; viability, T/C (compound 1 µM): 84.1% and 87.8% and 83.3%; viability, T/C (compound 3.16 µM): 97.7% and 89.4% and 91.1%; viability, T/C (compound 10 µM): 82.9% and 90.2% and 86%; IC50 (curve of compound): > 10 µM
2 | Nc1ncn(C2CC(O)C(CO)O2)c(=O)n1 (configuration not stated) + Cc1cncc(-c2nc(NCCc3c[nH]c4ccccc34)c3ncn(C(C)C)c3n2)c1 | > 1 µM | > 1 µM | > 1 µM | > 1 µM | < 0.00316 µM | 91.3% | 88% | 87.8% | 81.2% | 84.6% | 84% | 87.4% | 96.9% | 86.8% | 81% | 82.9% | 93.4% | 82.4% | 81% | 76.5% | viability, T/C (second compound 0.1 µM, first compound 0.00316 µM): 97.4%; viability, T/C (second compound 0.1 µM, first compound 0.01 µM): 85%; viability, T/C (second compound 0.316 µM, first compound 0.00316 µM): 88.8%; viability, T/C (second compound 0.316 µM, first compound 0.01 µM): 89.8%; viability, T/C (second compound 1 µM, first compound 0.00316 µM): 82.9%; viability, T/C (second compound 1 µM, first compound 0.01 µM): 83.9%; viability, T/C (second compound 3.16 µM, first compound 0.00316 µM): 82.7%; viability, T/C (second compound 3.16 µM, first compound 0.01 µM): 76.2%; viability, T/C [27]: 88.6%; viability, T/C (second compound 10 µM, first compound 0.00316 µM): 16.3%; viability, T/C (second compound 10 µM, first compound 0.01 µM): 26.8%; viability, T/C [30]: 36.8%; viability, T/C [31]: 44.8%; viability, T/C [32]: 21.5%; viability, T/C [33]: 26.4%
3 | CC(C)c1c(-c2ccccc2)nc2c(C#N)c[nH]n2c1=O + Cc1ccccc1N=Nc1ccc(NC(=O)c2ccnn2C)c(C)c1 | > 10 µM | > 10 µM | > 10 µM | > 10 µM | > 10 µM | 110% | 98.9% | 101% | 112% | 100% | 108% | 92.3% | 104% | 110% | 110% | 98.7% | 102% | 102% | 99.5% | 103% | viability, T/C [10]: 95.2%; viability, T/C [11]: 105%; viability, T/C [16]: 118%; viability, T/C [17]: 107%; viability, T/C [22]: 106%; viability, T/C [23]: 106%; viability, T/C [27]: 110%; viability, T/C [28]: 108%; viability, T/C [29]: 105%; viability, T/C [30]: 103%; viability, T/C [31]: 102%; viability, T/C [32]: 107%; viability, T/C [33]: 101%; viability, T/C [34]: 89%; viability, T/C [35]: 85.3%

The next lines start with results.

Row | IC50 [1] | IC50 [2] | IC50 [3] | IC50 [4] | IC50 [5] | SMILES | viability, T/C [6] | viability, T/C [7] | viability, T/C [8] | viability, T/C [9] | viability, T/C [12] | viability, T/C [13] | viability, T/C [14] | viability, T/C [15] | viability, T/C [18] | viability, T/C [19] | viability, T/C [20] | viability, T/C [21] | viability, T/C [24] | viability, T/C [25] | viability, T/C [26] | also measured
4 | 4.26 µM | 2.61 µM | 1.78 µM | 1.49 µM | < 0.0316 µM | Nc1ccccc1NC(=O)c1ccc(CNC(=O)OCc2cccnc2)cc1 + Cc1cncc(-c2nc(NCCc3c[nH]c4ccccc34)c3ncn(C(C)C)c3n2)c1 | 89.4% | 99.9% | 92.6% | 106% | 93.8% | 90% | 80.7% | 109% | 80.4% | 84.8% | 71.9% | 93.9% | 74% | 77.7% | 78.6% | viability, T/C [10]: 65.9%; viability, T/C [11]: 4.68%; viability, T/C [16]: 41.3%; viability, T/C [17]: 2.94%; viability, T/C [22]: 17.1%; viability, T/C [23]: 1.34%; viability, T/C [27]: 74.6%; viability, T/C [28]: 4.12%; viability, T/C [29]: 0.26%; viability, T/C [30]: 7.14%; viability, T/C [31]: 7.87%; viability, T/C [32]: 7.4%; viability, T/C [33]: 1.13%; viability, T/C [34]: 0.78%; viability, T/C [35]: 0.29%
5 | > 10 µM | > 10 µM | > 10 µM | > 10 µM | > 10 µM | O=C(c1cc(Cc2n[nH]c(=O)c3ccccc23)ccc1F)N1CCN(C(=O)C2CC2)CC1 + Cc1ccccc1N=Nc1ccc(NC(=O)c2ccnn2C)c(C)c1 | 106% | 109% | 89% | 117% | 106% | 99.9% | 89.6% | 93.5% | 99.7% | 106% | 98.1% | 106% | 100% | 106% | 92.8% | viability, T/C [10]: 114%; viability, T/C [11]: 112%; viability, T/C [16]: 92.7%; viability, T/C [17]: 106%; viability, T/C [22]: 110%; viability, T/C [23]: 111%; viability, T/C [27]: 100%; viability, T/C [28]: 89.3%; viability, T/C [29]: 92.8%; viability, T/C [30]: 106%; viability, T/C [31]: 107%; viability, T/C [32]: 110%; viability, T/C [33]: 111%; viability, T/C [34]: 98.9%; viability, T/C [35]: 101%
